From patent US20040235874A1, “Fungicidal composition comprising pyrimethanil and iprodione” (priority 2001, published 2004)

Key:
Assay type in all cases: in vivo
[1] = test system: Alternaria porri; assay: Control of Alternaria porri on onion, yield at harvest; conditions: for Yield (kg/ha): onion bulbs, harvest 32 days after last of 5 applications; for Yield gain (%): onion, compared with the untreated control
Protocol: This example illustrates the efficacy of a composition according to the invention which comprises pyrimethanil and iprodione as active ingredients for controlling Alternaria porri on onion.
The following fungicidal compounds are compared:
iprodione at the dose of 750 g/ha,
pyrimethanil at the dose of 600 g/ha,
iprodione+pyrimethanil at the doses of 300+150 g/ha to be applied in a mixture volume of 1 000 l/ha.
A total of 5 successive preventive sprayings are carried out on onion plants which were initially 31 days old and at a rhythm of 13 days.
32 days after the last application, harvesting is carried out and the yield is calculated in terms of kg of bulbs/ha and the yield gain expressed by comparing with the untreated control.

[2] = test system: Alternaria solani; assay: Field control of Alternaria solani on potato; conditions: potato Bintje
Excerpt: This example illustrates the efficacy of a composition according to the invention which comprises pyrimethanil and iprodione as active ingredients for controlling Alternaria solani on the potato. […] The following fungicidal compounds are compared: iprodione at the dose of 750 g/ha, pyrimethanil at the dose of 600 g/ha, […] The products are applied to potato (Bintje variety) which is sensitive to Alternaria solani. […] mancozeb—product tested—mancozeb—product tested—mancozeb—product tested. Scores for the disease (percentage of foliar surface area destroyed) are awarded 15 days after the second application of the experiment products (15 DAB), 8 days and 17 days after the third application of the experimental products (8 DAC and 17 DAC).

[3] = test system: Ascochyta pisi; assay: Control of Ascochyta pisi on protein-rich peas; conditions: pea Baccara, 23 days after second application
Excerpt: This example illustrates the efficacy of a composition according to the invention which comprises pyrimethanil and iprodione as active ingredients for controlling Ascochyta pisi on protein-rich peas. The following fungicidal compounds are compared: […] pyrimethanil at the dose of 600 g/ha, […] Two successive […] carried out on pea plants (Baccara variety) at the flowering stages and then two weeks after the first application. 23 days after the second application, the percentage of diseased leaves and pods is calculated; the results are presented in table 5.

[4] = test system: Alternaria dauci; assay: Field control of Alternaria dauci on carrot; conditions: carrot Nantes
Excerpt: This example illustrates the efficacy of a composition according to the invention which comprises pyrimethanil and iprodione as active ingredients for controlling alternaria dauci on carrot. The following fungicidal compounds are compared: iprodione at the dose of 750 g/ha, pyrimethanil at the dose of 600 g/ha, […] The products are applied to carrot (Nantes variety) which is sensitive to Alternaria dauci. The various products to be studied are sprayed at the rate of 3 applications in total with intervals of 8 days between the 1st and 2nd applications and of 10 days between the 2nd and 3rd application. Scores for the disease (percentage of foliar surface area destroyed) are awarded 7 days after the 1st and 2nd applications and then 3 days and 8 days after the 3rd application.

[5] = test system: Sclerotinia sclerotinium; assay: Control of Sclerotinia on lettuce, counting of attacked plants; conditions: lettuce Manita
Protocol: This sample illustrates the efficacy of a composition according to the invention which comprises pyrimethanil and iprodione as active ingredients for controlling Sclerotinia sclerotinium on lettuce. The following fungicidal compounds are compared: iprodione at the dose of 750 g/ha, pyrimethanil at the dose of 800 g/ha, […] A total of 5 […] carried out on lettuce plants ([…] variety). An inoculation with Sclerotinia is carried out the next day after the first treatment by spreading contaminated rape plant stems on the soil. 11 countings of the lettuce plants attacked by Schlerotinia are carried out throughout the trial.

SMILES: CC(C)NC(=O)N1CC(=O)N(c2cc(Cl)cc(Cl)c2)C1=O [iprodione]
- Yield (kg/ha) ([1]; 750 g/ha): 33 000 kg/ha
- Yield gain (%) ([1]; 750 g/ha): 16.8%
- Score for the disease (percentage of foliar surface area destroyed) ([2]; 750 g/ha, 8 DAC): 4.38%
- Score for the disease (percentage of foliar surface area destroyed) ([2]; 750 g/ha, 15 DAB): 1.75%
- Score for the disease (percentage of foliar surface area destroyed) ([2]; 750 g/ha, 17 DAC): 10%
- Amount of diseased leaves (%) ([3]; 500 g/ha, first column): 46%
- Amount of diseased leaves (%) ([3]; 500 g/ha, second column): 34%
- Score for the disease (percentage of foliar surface area destroyed) ([4]; 750 g/ha, 3 DAC): 19.4%
- Score for the disease (percentage of foliar surface area destroyed) ([4]; 750 g/ha, 7 DAA): 8.7%
- Score for the disease (percentage of foliar surface area destroyed) ([4]; 750 g/ha, 7 DAB): 11.9%
- Score for the disease (percentage of foliar surface area destroyed) ([4]; 750 g/ha, 8 DAC): 35%
- Counting of the lettuce plants attacked by Sclerotinia ([5]; 750 g/ha, counting 1): 1
- Counting of the lettuce plants attacked by Sclerotinia ([5]; 750 g/ha, counting 2): 2.5
- Counting of the lettuce plants attacked by Sclerotinia ([5]; 750 g/ha, counting 3): 3
- Counting of the lettuce plants attacked by Sclerotinia ([5]; 750 g/ha, counting 4): 4
- Counting of the lettuce plants attacked by Sclerotinia ([5]; 750 g/ha, counting 5): 4
- Counting of the lettuce plants attacked by Sclerotinia ([5]; 750 g/ha, counting 6): 4.8
- Counting of the lettuce plants attacked by Sclerotinia ([5]; 750 g/ha, counting 7): 5.5
- Counting of the lettuce plants attacked by Sclerotinia ([5]; 750 g/ha, counting 8): 5.9
- Counting of the lettuce plants attacked by Sclerotinia ([5]; 750 g/ha, counting 9): 6.7
- Counting of the lettuce plants attacked by Sclerotinia ([5]; 750 g/ha, counting 10): 7.4
- Counting of the lettuce plants attacked by Sclerotinia ([5]; 750 g/ha, counting 11): 7.9

SMILES: Cc1cc(C)nc(Nc2ccccc2)n1 [pyrimethanil]
- Yield (kg/ha) ([1]; 600 g/ha): 31 500 kg/ha
- Yield gain (%) ([1]; 600 g/ha): 11.5%
- Score for the disease (percentage of foliar surface area destroyed) ([2]; 600 g/ha, 8 DAC): 8.75%
- Score for the disease (percentage of foliar surface area destroyed) ([2]; 600 g/ha, 15 DAB): 3.44%
- Score for the disease (percentage of foliar surface area destroyed) ([2]; 600 g/ha, 17 DAC): 13.13%
- Amount of diseased leaves (%) ([3]; 600 g/ha, first column): 21%
- Amount of diseased leaves (%) ([3]; 600 g/ha, second column): 16%
- Score for the disease (percentage of foliar surface area destroyed) ([4]; 600 g/ha, 3 DAC): 31.2%
- Score for the disease (percentage of foliar surface area destroyed) ([4]; 600 g/ha, 7 DAA): 11.9%
- Score for the disease (percentage of foliar surface area destroyed) ([4]; 600 g/ha, 7 DAB): 21.9%
- Score for the disease (percentage of foliar surface area destroyed) ([4]; 600 g/ha, 8 DAC): 57.5%
- Counting of the lettuce plants attacked by Sclerotinia ([5]; 800 g/ha, counting 1): 3.5
- Counting of the lettuce plants attacked by Sclerotinia ([5]; 800 g/ha, counting 2): 5.5
- Counting of the lettuce plants attacked by Sclerotinia ([5]; 800 g/ha, counting 3): 8
- Counting of the lettuce plants attacked by Sclerotinia ([5]; 800 g/ha, counting 4): 14.8
- Counting of the lettuce plants attacked by Sclerotinia ([5]; 800 g/ha, counting 5): 18
- Counting of the lettuce plants attacked by Sclerotinia ([5]; 800 g/ha, counting 6): 22.8
- Counting of the lettuce plants attacked by Sclerotinia ([5]; 800 g/ha, counting 7): 26
- Counting of the lettuce plants attacked by Sclerotinia ([5]; 800 g/ha, counting 8): 29.4
- Counting of the lettuce plants attacked by Sclerotinia ([5]; 800 g/ha, counting 9): 31.4
- Counting of the lettuce plants attacked by Sclerotinia ([5]; 800 g/ha, counting 10): 33.9
- Counting of the lettuce plants attacked by Sclerotinia ([5]; 800 g/ha, counting 11): 35.8
